The values below come from patent US6911470B1, “Polyoxometalate compounds as antiviral agents” (priority 1988, dated 2005).

One may read the pIC50 as the negative decadic logarithm of the IC50, by convention in mol/L.

pEC50, pIC50: −log10 of the molar value. Read-outs that look alike come from different tables or passages of the source.

The test system of one series is Friend, Spleen (EY-10). The experiment in a line: UV/XC assay for murine retroviruses in SC-1 cells. Type of series: cell-based, murine retrovirus. The settings on record: Table 2, read-out: EC-50 Friend, Spleen (EY-10). As for the experimental part: UV/XC Assay for Murine Retroviruses Cells. Mouse embryo fibroblasts (SC-1) and XC cells were obtained from the American Type Culture Collection, Rockville, Md. The XC cell line was derived from a transplantable tumor induced in newborn White-Weston rats by the intramuscular injection of the Prague strain of Rous sarcoma virus. […] The cells were maintained in Eagle's minimum essential medium with Hanks balanced salt solution, supplemented with penicillin (100 U/ml), streptomycin (100 μg/ml), sodium bicarbonate (24 mM), Hepes (25 mM), and either 2 (maintenance) or 10 (growth) percent inactivated newborn or fetal calf serum.
Virus quantitation by UV-XC assay. The XC test (Rowe et al, Virology 42, 1136-1139, 1970) is a plaque-type of assay which tests for the presence and titer of B- and N-tropic murine leukemia viruses. Because these viruses produce no overt signs of infection of SC-1 mouse cells, it is necessary to overlay the virus producing culture with an indicator cell line, XC. The number of syncytia that are produced is a direct measure of the virus titer in FFU.
Six-well plates were seeded with 1×10^5 SC-1 mouse cells on the first day. On the following day the medium was removed and the inoculum (0.2 ml) was added in medium containing polybrene (4 μg/ml). For determining the antiviral activity of the compounds in culture, the virus dilution selected produced in untreated cultures about 80 foci per well. After 1 hour, the virus was removed and various concentrations of the drug were added. The plates were replenished with medium on the third and fifth days. The medium was removed on the eighth day and the cells exposed to UV irradiation (60 erg/mm^2 per sec) for 30 seconds. Medium containing 10^6 XC cells was then added to each plate. On the eleventh day, the plates were fixed with 10% buffered Formalin and stained with crystal violet. Comparison of the number of foci to those found in virus-infected cells receiving no drug allowed determination of whether a drug at a particular concentration was effective. Control cells without virus but receiving the drug provided an estimate of the drug's toxic effects as quantitated by using trypan blue staining.

The next series has as its system Vero cells. The series is described as follows: Cytotoxicity assay in Vero cells. Type of series: cell-based. The settings on record: for pIC50: Table 2, >100 μM = Nontoxic, read-out: IC50 Toxicity Vero Cells; for Toxicity Vero Cells, percent at given concentration: 100 μM. From the text: Cell culture assays for heroes simplex viruses. Mycoplasma-free Vero cells, obtained from Flow Laboratory (McLean, Va.), were used for the plaque assays. The methodologies for the plaque reduction and cytotoxicity assays have been previously described (Schinazi et al, Antimicrob. Agents Chemother. 22, 499-507, 1982).

The subject of series [1] is human granulocyte-macrophage precursor cells. Type of series: cell-based. From the text: Preparation of Cells. Human bone marrow cells were collected by aspiration from the posterior iliac crest of normal healthy volunteers, treated with heparin and the mononuclear population separated by Ficoll-Hypaque gradient centrifugation. Cells were washed twice in Hanks balanced salt solution, counted with a hemacytometer and their viability was >98% as assessed by trypan blue exclusion.
Assay of Colony-Forming Unit Granulocyte-Macrophage (CFU-GM) for Drug Cytotoxicity. The culture assay for CFU-GM was performed using a bilayer soft-agar method as recently described (Sommadossi et al, Antimicrob. Agents Chemother. 31, 452-454, 1987). McCoy 5A nutrient medium supplemented with 15% dialyzed fetal bovine serum (heat inactivated at 56° C. for 30 min.) (Gibco Laboratories, Grand Island, N.Y.) was used in all experiments. This medium was completely lacking in thymidine and uridine. Cells were cloned in 0.3% agar in the presence of increasing concentrations of the modulating compound or in medium alone (control). After 14 days of incubation at 37° C. in a humidified atmosphere of 5% CO2 in air, colonies (≧50 cells) were counted using an inverted microscope.
The toxicities of a variety of polyoxometalates with respect to human bone marrow cells (human granulocyte-macrophage precursor cells) were assessed.

For series [2] the following is noted: background statement; AZT in a clinical setting; cited from earlier work.
Series [3] deals with T1, HIV-1 reverse transcriptase (Human immunodeficiency virus type 1 group M subtype B, UniProt P04585).
T1 construct: HIV-1 RT was isolated from detergent disrupted virions; made in house; host or cells: virions pelleted from culture fluid of HIV-1-infected PHA-stimulated human PBMC; DEAE-cellulose and phosphocellulose chromatography
The experiment in a line: Evaluation of compounds on purified retroviral RT (cell-free, virion-derived). The settings on record: Table 2; read-out: EC-50 Cell-Free RT (virion-derived). Type of series: biochemical. In short, it runs like this:
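Enzyme was HIV-1 RT partially purified from virions of infected PHA-stimulated PBMC by DEAE-cellulose and phosphocellulose chromatography. Reactions at pH 8.0 with 2 mM MgCl2, 50 mM KCl, 3 μg/ml (rA)·(dT)12-18 template and 1 μM [3H]TTP, 60 min at 37 °C. IC50 from median-effect analysis.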

Consider `Cc1cn([C@H]2C[C@H](N=[N+]=[N-])[C@@H](CO)O2)c(=O)[nH]c1=O` [Formula 22, 3′-azido-3′-deoxythymidine, reference compound], for which, in the series on Friend, Spleen (EY-10) (unidentified retrovirus, SC-1), the pEC50 is 8.00. In addition, the negative logarithm of the IC50 (pIC50) with Vero cells (Chlorocebus sabaeus, Vero) was 4.54. The “toxicity to human bone marrow cells (order of toxicity, FIG. 6)” value (from here on “toxicity to human bone marrow cells”) in series [1] (human, 14 days) is “BT and NH4ST<AZT and ST<HPA-23”. Also, the adverse effect result in series [2] is reported as “reversible bone marrow toxicity”.
Regarding “(ArgH^+)m(H^+)4-mST, where m=1-4 [(ARGH^+)nH^+(4−n)ST]”, the pEC50 was 4.85 in series [3] and 6.00 in the series on Friend, Spleen (EY-10). Also, the pIC50 in the series on Vero cells is < 4.00.
As for (Me4N)4W10O32 [Formula 19], the pEC50 in series [3] was 5.00. Further, the pIC50 with Vero cells is < 4.00.
As to (NH4)4W10O32 [Formula 18], the pEC50 in series [3] was 4.62; in the series with Friend, Spleen (EY-10), 6.24. Moreover, the pIC50 with Vero cells is < 4.00.
Regarding (NH4)6P2W18O62 [Formula 14], the pEC50 in series [3] is 6.89. Further, the “Toxicity Vero Cells, percent at given concentration” value in the series with Vero cells is listed as 83%,.
In the case of H3PW12O40 [Formula 2], in series [3], the pEC50 was < 4.00. Further, the negative-log IC50 (pIC50) with Vero cells is 5.00.
Turning to H4SiW12O40 [Formula 3], the pEC50 in series [3] was 4.58; in the series on Friend, Spleen (EY-10) it was 6.77. In the series with Vero cells, the pIC50 was 4.10. Moreover, in series [1], the “toxicity to human bone marrow cells” value was “BT and NH4ST<AZT and ST<HPA-23”.
Take H5BW12O40 [Formula 4]: the pEC50 in series [3] was 5.59; with Friend, Spleen (EY-10), 6.74. For the same compound, the pIC50 in the series with Vero cells is 4.07. Moreover, the “toxicity to human bone marrow cells” value in series [1] is “NH4BT (least toxic)<BT and NH4ST<AZT and ST”.
For the compound H6P2W18O62 [Formula 13], the pEC50 in series [3] is 6.85. The “Toxicity Vero Cells, percent at given concentration” value in the series with Vero cells is on record as 81.9%,.
